Experimental data reported in patent publication US10723764B2, “Anti-microbial peptides and methods of use thereof” (priority 2011, dated 2020).
≈ marks a conversion by molar mass, not a printed value. Where a SMILES comes first, the peptide text is derived from it. Where no end group is shown, it is not given here. [ ]: non-standard residue; d: D form. Phe(4-CF3) = N[C@@H](Cc1ccc(C(F)(F)F)cc1)C(=O)O

Experiments:
[1] = Peptide solubility (observation); type: physicochemical
chymotrypsin = chymotrypsin (Bos taurus, UniProt P00766); assay: Peptide stability to chymotrypsin by SDS-PAGE; type: in vitro ADME, bovine; conditions: 12.5 μM chymotrypsin, peptide/protein 40:1, PBS pH 8, 37° C.
Procedure: A solution (100 μl) of the peptide and 12.5 μM chymotrypsin (peptide/protein molar ratio, 40:1) in 10 mM PBS buffer (pH 8) was incubated at 37° C. Aliquots (10 μl) of the reaction solutions were taken at 0, 2, 4, and 22 hours and immediately mixed with 20 μl of 2×SDS loading buffer to stop the reaction. For the gel analysis, 10 μl of each sample was loaded to the well of a 5% stacking/18% resolving tricine gel. The samples in the lanes are: 1, protein marker; 2, temporin-PTa L-form at 0 hour; 3, 2 hours; 4, 4 hours; 5, 22 hours; 6, temporin-PTa D-form at 0 hour; 7, 2 hours; 8, 4 hours; 9, 22 hours. In the gel, the bands for the peptide and chymotrypsin were indicated with large and small arrows, respectively. Note that the peptide bands were not detected in lanes 3-5 due to protease cleavage but remained essentially constant in lanes 7-9.
Peptide stability was evaluated using standard SDS-PAGE (described in FIG. 5).
Peptide stability was evaluated based on a published protocol (Mishra et al. (2012) J. Am. Chem. Soc., 134:12426-12429) with one modification. Aliquots (10 μL) of the reaction solutions (peptide/protease molar ratio, 40:1) in 10 mM PBS buffer (pH 8) at 37° C. were taken at 0, 6, and 24 hours and immediately mixed with 10 μL of 2×SDS loading buffer followed by boiling for 5 minutes to stop the reaction. Samples were analyzed using 5% stacking/18% resolving tricine gel.

ESKAPE pathogens = type: cell-based
Procedure: (§1) The antibacterial activities of the peptides were determined using the standard broth microdilution method (Mishra et al. (2012) J. Am. Chem. Soc., 134:12426-12429; Wang et al. (2005) Biol. Chem., 280:5803-5811). Briefly, the bacterial culture was treated with a series of peptide solutions, each with two-fold dilution. After overnight incubation at 37° C., the microplate was read on a ChroMate® 4300 Microplate Reader at 630 nm (GMI, Ramsey, Minn.).
A rational design was conducted on the basis of the 3D structure of GF-17d3. […] The noncoherent packing of the GF-17d3 side chains caused a hydrophobic defect in the structure (FIGS. 8C and 8D, arrow), leading to reduced hydrophobicity. Accordingly, it was hypothesized that the antimicrobial activity of this peptide 17F2 (sequence GX1KRLVQRLKDX2LRNLV (SEQ ID NO: 58), Table 9) could be enhanced by filling in the hydrophobic cavity (FIG. 8D, arrow) with a larger hydrophobic side chain. The antimicrobial activities of these peptide analogues were evaluated using the standard microdilution assays (Mishra et al. (2012) J. Am. Chem. Soc., 134:12426-12429), and the minimal inhibitory concentrations (MIC) against a panel of the ESKAPE pathogens are provided in Table 10. […] To compare the two sites, these two substitutions at positions X1 and X2 were swapped to obtain 17Naph-mF. […] In addition, biphenylalanines were incorporated at position X1 alone or at both X1 and X2 of the 17F2 template. […] The killing abilities of these peptides are essentially proportional to their MIC values as well as retention times (a measure of hydrophobicity) on a reverse-phase HPLC column (Mishra et al. (2012) J. Am. Chem. Soc., 134:12426-12429).

Escherichia coli K12 = conditions: Table 8
E. cloacae B2366-12 = type: cell-based; conditions: B2366-12
Procedure: as §1

[2] = tested on: methicillin-resistant Staphylococcus aureus USA300 LAC; conditions: for S. aureus USA 300 MIC: Table 8
Procedure: This was done by modifying the standard microdilution antimicrobial assays (Wang, G. (2008) J. Biol. Chem., 283:32637-32643). Specifically, the bacterial wells with a high peptide concentration (e.g. 100 μM) are duplicated (e.g., two for antimicrobial assays and two for protease stability assays). As an illustration, chymotrypsin was applied to the duplicated wells at a peptide:protease molar ratio of 25:1.

A. baumannii B2367-12 = type: cell-based, Acinetobacter baumanii
Procedure: as §1

[3] = human, hemolysis, at 160 μM, human red blood cells
Procedure: (§2) Peptide hemolysis was assayed using an established protocol (Malmsten et al. (2011) PLoS One 6:e16400). In brief, fresh blood, obtained from the UNMC Blood Bank, was washed three times with PBS buffer and made into a 5% solution. To 90 μL of this solution, 10 μL of a peptide solution was added and incubated at 37° C. for one hour. After centrifugation at 13,000 rpm, aliquots of the supernatant were transferred to a fresh 96 well microplate. The absorbance of the solutions was measured at 545 nm to detect the amount of hemoglobin released. The percent lysis was calculated by assuming 100% release when treated with 2% Triton X-100 and no lysis (0%) when treated with PBS buffer. HL50 was the peptide concentration that caused 50% lysis of human erythrocytes. The cell selectivity (CS) indexes were calculated as the ratio of HL50 to the MIC of the peptide against S. aureus USA300.
(§3) The hemolytic effects of the six peptides were also compared on human red blood cells (hRBC) using an established protocol (Malmsten et al. (2011) PLoS One 6:e16400). […] A high TI indicates good cell selectivity.
(§4) Peptide hemolysis was assayed using an established protocol (Menousek et al. (2012) Int. J. Antimicrob. Agents 39:402-406; Malmsten et al. (2011) PLoS One 6:e16400). Briefly, blood cells were washed three times with phosphate-buffered saline (PBS) and were diluted to a 5% solution. Following peptide treatment, incubation at 37° C. for 1 hour and centrifugation at 13,000 rpm, aliquots of the supernatant were transferred to a fresh 96-well microplate. To assess peptide cytotoxicity, the amount of hemoglobin released was measured at 545 nm. Percent lysis was calculated by assuming 100% release when human blood cells were treated with 2% Triton X-100 and 0% release when they were incubated with PBS buffer.

human erythrocytes = conditions: for hemolysis: human, 160 µM
Procedure: as §2, §3, §4

Bacillus subtilis 168 = type: cell-based
Procedure: (§5) The bacterial strains used in the study are Bacillus subtilis 168, methicillin-resistant Staphylococcus aureus USA300 LAC (Gram-positive), Escherichia coli K12, and Pseudomonas aeruginosa PAO1 (Gram negative). The antibacterial activities of the peptides were determined using the standard broth microdilution method (Wang et al. (2005) J. Biol. Chem., 280:5803-5811). In brief, the bacterial culture (90 μL) was treated with a series of peptide solutions (10 μL), each with two-fold dilution. After overnight incubation at 37° C., the microplate was read on a ChroMate® 4300 Microplate Reader at 630 nm (GMI, Ramsey, Minn.).
(§6) For the initial screen, antimicrobial activities of these peptides against S. aureus and E. coli were evaluated using the standard broth microdilution protocol (Wang, G. (2008) J. Biol. Chem., 283:32637-43). […] Subsequently, the in vitro activity of these six peptides was evaluated against Bacillus subtilis and Pseudomonas aeruginosa (Table 6). […] While maculatin 1.3 is active against two Gram-positive but not two Gram-negative bacterial strains, DASamP1 is species-specific since it active only against S. aureus. The finding that ascaphin-8, […], and piscidin 1 are wide-spectrum AMPs agrees with the literature (Apponyi et al. (2004) Peptides 25:1035-1054; Conlon et al. (2004) Biochem. Biophys. Res. Commun., 320:170-175; Silphaduang et al. (2001) Nature 414:268-269; Souza et al. (2005) J. Immunol., 186:6585-6596). For lycotoxin I, it was previously found to active against Gram-negative E. coli and yeast (Yan et al. (1998) J. Biol. Chem., 273:2059-2066).

[4] = tested on: Pseudomonas aeruginosa PAO1; type: cell-based
Procedure: as §5, §6, §1

E. faecium ATCC51559 = type: cell-based, Enterococcus faecium; conditions: ATCC51559
Procedure: as §1

## GIIPIISIIGKII-NH2 (C-terminus assumed) [DFTamP1-pi]
[1]
  solubility: poorly soluble

## CC[C@H](C)[C@H](NC(=O)[C@H](CCCCN)NC(=O)[C@@H]1CCCN1C(=O)[C@@H](NC(=O)[C@H](CC(C)C)NC(=O)[C@H](CCCCN)NC(=O)[C@H](CC(C)C)NC(=O)[C@@H](NC(=O)[C@H](CO)NC(=O)CNC(=O)[C@H](Cc1ccccc1)NC(=O)[C@@H](N)Cc1ccccc1)C(C)C)[C@@H](C)CC)C(=O)N[C@@H](CC(C)C)C(N)=O [Temporin-PTa, reference compound]
chymotrypsin
  time the peptide stays intact in the presence of chymotrypsin: ≤ 2 h

## CC(C)C[C@H](NC(=O)[C@H](CC(N)=O)NC(=O)[C@H](CCCNC(=N)N)NC(=O)[C@@H](CC(C)C)NC(=O)[C@H](Cc1ccccc1)NC(=O)[C@H](CC(=O)O)NC(=O)[C@H](CCCCN)NC(=O)[C@@H](CC(C)C)NC(=O)[C@H](CCCNC(=N)N)NC(=O)[C@H](CCC(N)=O)NC(=O)[C@@H](NC(=O)[C@@H](CC(C)C)NC(=O)[C@H](CCCNC(=N)N)NC(=O)[C@H](CCCCN)NC(=O)[C@H](Cc1ccccc1)NC(=O)CN)C(C)C)C(=O)N[C@H](C(N)=O)C(C)C [A128A, GX1KRLVQRLKDX2LRNLV-amide] (H-GFKR[dL]VQR[dL]KDF[dL]RNLV-NH2)
ESKAPE pathogens; E. coli, A. baumannii, and E. cloacae
  MIC against E. coli, A. baumannii, and E. cloacae: 6.2 to 25 µM
Escherichia coli K12
  E. coli K12 MIC: 10 µM
E. cloacae B2366-12
  MIC (μM) EC: 25 µM (≈ 52.5 µg/mL)
[2]
  S. aureus USA 300 MIC: > 160 µM
A. baumannii B2367-12
  MIC (μM) AB: 6.2 to 12.5 µM
[3]
  hemolysis at 160 µM: 3 to 5%
Human erythrocytes
  hemolysis: <3%

## FFGSLLKLLPKLL-NH2 [Temporin-PTa6L]
Bacillus subtilis 168
  MIC (μM) BS: 3.12 µM

## CC(C)C[C@H](NC(=O)[C@H](CC(N)=O)NC(=O)[C@H](CCCNC(=N)N)NC(=O)[C@@H](CC(C)C)NC(=O)[C@H](Cc1ccccc1)NC(=O)[C@H](CC(=O)O)NC(=O)[C@H](CCCCN)NC(=O)[C@@H](CC(C)C)NC(=O)[C@H](CCCNC(=N)N)NC(=O)[C@H](CCC(N)=O)NC(=O)[C@@H](NC(=O)[C@@H](CC(C)C)NC(=O)[C@H](CCCNC(=N)N)NC(=O)[C@H](CCCCN)NC(=O)[C@H](Cc1ccc(C(F)(F)F)cc1)NC(=O)CN)C(C)C)C(=O)N[C@H](C(N)=O)C(C)C [B128A, GX1KRLVQRLKDX2LRNLV-amide] (H-G[Phe(4-CF3)]KR[dL]VQR[dL]KDF[dL]RNLV-NH2)
[4]
  MIC (μM) PA: 25 µM (≈ 54.2 µg/mL)
E. faecium ATCC51559
  MIC (μM) EF: 25 to 50 µM
ESKAPE pathogens; most of the ESKAPE strains
  MICs against most of the ESKAPE strains: 25 to 50 µM
Escherichia coli K12
  E. coli K12 MIC: 5 µM
E. cloacae B2366-12
  MIC (μM) EC: 25 µM (≈ 54.2 µg/mL)
[2]; S. aureus USA300 LAC, Table 10
  MIC (μM) SA: 25 µM (≈ 54.2 µg/mL)
[2]
  S. aureus USA 300 MIC: 40 µM
A. baumannii B2367-12
  MIC (μM) AB: 3.1 to 6.2 µM
[3]
  hemolysis at 160 µM: 3 to 5%
Human erythrocytes; Table 10
  HL50 (μM), peptide concentration that causes 50% lysis of human erythrocytes: >900 µM
Human erythrocytes
  hemolysis: <5%

## LLGSLLKLLPKLL-NH2 [Temporin-PTa8L]
[4]
  MIC (μM) PA: >100 µM
Bacillus subtilis 168
  MIC (μM) BS: 3.12 µM

## CC[C@@H](C)[C@@H](NC(=O)[C@@H](CCCCN)NC(=O)[C@H]1CCCN1C(=O)[C@H](NC(=O)[C@@H](CC(C)C)NC(=O)[C@@H](CCCCN)NC(=O)[C@@H](CC(C)C)NC(=O)[C@H](NC(=O)[C@@H](CO)NC(=O)CNC(=O)[C@@H](Cc1ccccc1)NC(=O)[C@H](N)Cc1ccccc1)C(C)C)[C@H](C)CC)C(=O)N[C@H](CC(C)C)C(N)=O [Temporin-PTa (D-form)]
[4]
  MIC (μM) PA: >100 µM
chymotrypsin
  time the peptide stays intact in the presence of chymotrypsin: at least 22 hours
Bacillus subtilis 168
  MIC (μM) BS: 6.25 µM (≈ 9.21 µg/mL)
